Assay [1] relates to RKO (RKOp27) human colon adenocarcinoma cells. In words: Alamar Blue cell viability assay, anti-proliferative/cytotoxic activity on proliferating RKOp27 cells. Particulars: absence of Ponasterone A, 72 hours incubation, read-out: IC50 RKO p27 proliferating. It is filed as cell-based. Summed up: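 RKOp27 subclone of RKO cells, 4000/well in DMEM with 10% FCS, was treated 24 h after seeding with semi-log compound dilutions in quadruplicate for 72 h at 37 °C, 5% CO2. Alamar Blue fluorescence (ex 544/em 590 nm) was read as % viability of untreated cells, and IC50 was taken from concentration-effect curves.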
Background: Resazurin is reduced to fluorescent resorufin, in cell work by metabolically active cells.

The subject of assay [2] is RKO colon adenocarcinoma cells (RKOp27) arrested by expression of ectopic p27Kip1. In words: Alamar Blue cell viability assay on RKOp27 cells arrested by Ponasterone A-induced p27Kip1 (cell cycle specific mode of action). The assay is classed as cell-based. The conditions noted are these: Homo sapiens, RKOp27, 72 h, cells arrested by p27Kip1 induced with 10 μM Ponasterone A, 72 hours incubation, read-out: IC50 RKO p27 arrested. Summed up: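 Viability measured by Alamar Blue fluorescence (ex 544, em 590 nm) after 72 h, 37 °C compound exposure in quadruplicate, normalized to untreated cells as 100%. Cells were p27Kip1-arrested RKOp27, induced with 10 μM Ponasterone A at seeding; compound added 24 h later.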

SMILES strings stand for the structures. Bounds are passed on as bounds.

For orientation: IC50 means the concentration at which inhibition is half-maximal. `COC(=O)CCOC(=O)N1CCc2c(sc(NC(=O)/C=C/c3cccnc3)c2C#N)C1` [Example 162, 3-Cyano-2-((E)-3-pyridin-3-yl-allanoylamino)-4,7-dihydro-5H-thieno[2,3-c]pyridine-6-carboxylic acid 2-methoxycarbonyl-ethyl ester]: the IC50 is at most 2 µM in assay [1] and at least 100 µM in assay [2].
For `CCOC(=O)N1CCc2c(sc(NC(=O)/C=C/c3ccc(F)cc3C)c2C#N)C1` [Example 89, 3-Cyano-2-[(E)-3-(4-fluoro-2-methyl-phenyl)-allanoylamino]-4,7-dihydro-5H-thieno[2,3-c]pyridine-6-carboxylic acid ethyl ester], the results for the concentration for half-maximal inhibition (IC50) in assay [1] and in assay [2] were at most 2 µM and at least 100 µM, respectively.
`CCCCCSC(=O)N1CCc2c(sc(NC(=O)/C=C/c3ccccc3)c2C#N)C1` [Example 49, 3-Cyano-2-((E)-3-phenyl-allanoylamino)-4,7-dihydro-5H-thieno[2,3-c]pyridine-6-carbothioic acid S-pentyl ester]: the IC50 in assay [1] was at most 2 µM; in assay [2], at least 100 µM.
For the compound `CCOC(=O)N1CCc2c(sc(NC(=O)/C=C/c3ccccn3)c2C#N)C1` [Example 100, 3-Cyano-2-((E)-3-pyridin-2-yl-allanoylamino)-4,7-dihydro-5H-thieno[2,3-c]pyridine-6-carboxylic acid ethyl ester], the IC50 in assay [1] is at most 2 µM; in assay [2], at least 100 µM.
The matching figures for `CN(C)CCOC(=O)N1CCc2c(sc(NC(=O)/C=C/c3ccccc3)c2C#N)C1` [Example 113, 3-Cyano-2-((E)-3-phenyl-allanoylamino)-4,7-dihydro-5H-thieno[2,3-c]pyridine-6-carboxylic acid 2-dimethylamino-ethyl ester]: at most 0.5 µM and at least 50 µM.
`CC(=O)NCCOC(=O)N1CCc2c(sc(NC(=O)/C=C/c3ccccc3)c2C#N)C1` [Example 134, 3-Cyano-2-((E)-3-phenyl-allanoylamino)-4,7-dihydro-5H-thieno[2,3-c]pyridine-6-carboxylic acid 2-acetylamino-ethyl ester]: the IC50 in assay [1] is at most 2 µM; in assay [2], at least 100 µM.
The matching figures for `CCOC(=O)N1CCc2c(sc(NC(=O)/C=C/c3ccccc3O)c2C#N)C1` [Example 95, 3-Cyano-2-[(E)-3-(2-hydroxy-phenyl)-allanoylamino]-4,7-dihydro-5H-thieno[2,3-c]pyridine-6-carboxylic acid ethyl ester]: at most 2 µM and at least 100 µM.
The matching figures for `CCOC(=O)N1CCc2c(sc(NC(=O)/C=C/c3c(F)ccc(F)c3F)c2C#N)C1` [Example 68, 3-Cyano-2-[(E)-3-(2,3,6-trifluoro-phenyl)-allanoylamino]-4,7-dihydro-5H-thieno[2,3-c]pyridine-6-carboxylic acid ethyl ester]: at most 2 µM and at least 100 µM.
For the compound `CCOC(=O)N1CCc2c(sc(NC(=O)/C=C/c3ccccc3C#N)c2C#N)C1` [Example 83, 3-Cyano-2-[(E)-3-(2-cyano-phenyl)-allanoylamino]-4,7-dihydro-5H-thieno[2,3-c]pyridine-6-carboxylic acid ethyl ester], the figures for the IC50 in assay [1] and in assay [2] were at most 2 µM and at least 100 µM, respectively.
As to `CCOC(=O)N1CCc2c(sc(NC(=O)/C=C/c3cccc4c3OCC4)c2C#N)C1` [Example 234, 3-Cyano-2-((E)-3-2,3-dihydro-benzofuran-7-yl-allanoylamino)-4,7-dihydro-5H-thieno[2,3-c]pyridine-6-carboxylic acid ethyl ester], the half-inhibitory concentration (IC50) in assay [1] was at most 2 µM; in assay [2], at least 100 µM.
As for `N#Cc1c(NC(=O)/C=C/c2cccnc2)sc2c1CCN(C(=O)OCCOCc1ccccc1)C2` [Example 166, 3-Cyano-2-((E)-3-pyridin-3-yl-allanoylamino)-4,7-dihydro-5H-thieno[2,3-c]pyridine-6-carboxylic acid 2-benzyloxy-ethyl ester], the IC50 was at most 2 µM in assay [1] and at least 100 µM in assay [2].
